# Test results from patent US20160051704A1, “MOLECULAR IMAGING PROBES FOR LUNG CANCER INTRAOPERATIVE GUIDANCE” (H. Lee Moffitt Cancer Center and Research Institute, Inc., priority 2013, published 2016).
# What was measured:
# [1] = target: T1, delta opioid receptor (δOR) (Homo sapiens, UniProt P41143); experiment: Lanthanide time-resolved fluorescence (TRF) competitive binding assay on HCT-116/δOR whole cells against Eu-DTPA-DPLCE; details: HCT-116 cells engineered to express δOR; competed ligand Eu-labeled DPLCE; read-out: Ki (δOR binding affinity)
# T1 construct: pcDNA-δOR15 vector containing a truncated δOR lacking the final 15 C-terminal amino acids; expressed in transfected cells
# Text: The inventors have previously generated an engineered cell line that stably overexpresses the δO R based on the colorectal cancer cell line HCT-116. […] For the LTRF competition binding assays with Dmt-Tic-IR800, the inventors used the engineered HCT-116/δOR cell line since it has a high number of receptors on the cell surface.
# To determine binding affinity the inventors used a lanthanide time-resolved fluorescence (LTRF) competitive binding assay as described previously.
# For the competitive binding assays, HCT-116/δOR cells were plated in black wall/white bottom 96-well plates (Perkin Elmer, Cat. #6005060) at a density of 20,000 cells per well and were allowed to grow for 3 days.
# On the day of the experiment, media were aspirated from all wells and then the cells were rinsed with phosphate buffered saline (PBS) (100 μL/well). […] Ligands were diluted in binding assay buffer (Modified Eagles medium [MEM] (Gibco, Cat. #61100-087), 1 mM 1,10-phenanthroline, 200 mg/L bacitracin, 0.5 mg/L leupeptin, 26 mM NaHCO3, 25 mM HEPES, 0.2% w/v BSA) and samples were tested in octuplicate.
# Cells were incubated in the presence of ligands for 1 h at 37° C. and 5% CO2. Following the incubation, cells were washed three times with wash buffer (50 mM Tris-HCl, 0.2% w/v BSA, 30 mM NaCl) (200 μL/well).
# [2] = target: T2, δOR (Mus musculus, UniProt P32300); experiment: Mouse-isolated vas deferens (MVD) assay against δ-agonist DPDPE; details: n=8, read-out: Ke (inhibitory potency)
# T2 construct: from tissue; host or cells: mouse isolated vas deferens
# Text: (Kramer, T. H.; Davis, P.; Hruby, V. J.; Burks, T. F.; Porreca, F. J. Pharmacol. Exp. Ther. 1993, 266, 577-584)
# [3] = test system: HCT-116/δOR (δOR+) tumor relative to HCT-116 (δOR−) tumor; format: in vivo, mice
# Experimental: (§1) The inventors evaluated a synthetic peptide δ-opioid receptor (δOR) antagonist Dmt-Tic (FIG. 8) conjugated to two different fluorescent dyes, Cy5 and IR800CW, as further discussed below. The pharmacokinetics (PK) of Dmt-Tic-Cy5 was evaluated in a subcutaneous xenograft model using HCT-116 cells (δOR−) and HCT-116 cells that were engineered to overexpress the δOR (δOR+). Tumor uptake of Dmt-Tic-Cy5 was also studied by intravital fluorescence microscopy using a dorsal skin-fold window chamber tumor xenograft model.
# For PK experiments, mice were injected with 4.5 nmol/kg Dmt-Tic-Cy5 i.v. and images acquired at various time points from 0-168 h ([…]). Graphs 9B and 9C depict the mean fluorescent signal obtained from the δOR− tumors and δOR+ tumors over a time course of 0-168 h. Graph […] depicts the mean fold of enhancement (δOR+ tumor signal/δOR− tumor signal) over time. The tumor signals were quantified, averaged (n≧3 for each time point), and plotted over time. The graphs 9B and 9C show maximum probe uptake in the δOR+ tumor at 3 h. FIG. 9D depicts the maximum signal fold of enhancement (27±9 s.d.) at 18 h in δOR+ relative to δOR− tumors.
# Mice then were tail vein injected with 10 μg of ligand 1 and images were acquired at different times post-injection using a VersArray 1300B cooled CCD camera, a filtered fiberoptic light source and a tunable emission filter (CRI, Inc.). After 15 min post-injection, the fluorescence intensity maps indicated systemic presence of the compound with high intensity throughout the animal (not shown). […] Histograms were generated for each ROI, and mean fluorescence intensities were determined for each time point. […]
# Initial experiments were performed using the HCT-116 parental cell line and HCT-116/δOR engineered cells in a bilateral flank subcutaneous xenograft model in mice. […] Mice were injected intravenously with the designated concentrations of Dmt-Tic-IR800 and fluorescence imaging was performed at various time points post-injection using the IVIS200 imaging system. […]
# [4] = test system: HCT-116/RFP (δOR negative) and HCT-116/δOR tumors; experiment: Intravital fluorescence microscopy, dorsal skin-fold window chamber tumor xenograft; format: in vivo, mice; details: 45 nmol/kg i.v.; HCT-116/RFP (δOR negative) tumor; post tail vein injection
# Experimental: as §1
# Mice containing dorsal skin-fold window chamber tumor xenografts were injected with 45 nmol/kg Dmt-Tic-Cy5 i.v. (FIG. 12) Images were acquired continuously for 15 minutes post-injection and at various time points after. […] Dmt-Tic-Cy5 is taken up and extravasates from the rat GFP vessels within seconds post tail vein injection (top). Dmt-Tic-Cy5 is cleared by 33 minutes post tail vein injection (bottom). Light gray represents the RFP signal from the tumor cells, medium gray represents the GFP signal from the rat microvessels, and dark gray is the Cy5 signal from the ligand. […] Shown are the Cy5 signal from the ligand in dark gray (left images) and overlays of the Cy5 signal and white light channels (right images) pre-injection and 25 minutes, 45 minutes, 60 minutes, 1 hour 25 minutes, and 24 hours post-injection.
# [5] = In vivo pharmacokinetic (PK) and biodistribution (BD) profiles of fluorescent conjugates
# [6] = test system: DMS-53 (δOR+) tumor relative to H1299 (δOR−) tumor; experiment: In vivo fluorescence imaging, bilateral subcutaneous lung cancer xenografts with endogenous δOR expression; set-up: species or system mice; details: for tumor selectivity in fluorescence image: 40 nmol/kg, 24 h post-administration
# Experimental: Mice were subcutaneously injected with H1299 (δOR−) (12 million cells of 100 uL per injection) and DMS-53 (δOR+) (20 million cells at 100 uL per injection) cells in the left and right flanks, respectively. Tumors were grown for 3 weeks after subcutaneous injection.
# A dose determination assay was performed to find the optimal concentration of Dmt-Tic-IR800 for further experiments. A higher concentration of the imaging agent in these experiments was needed due to the lower receptor number. Based on previous work with fluorescent imaging agents targeting different receptors in endogenous expressing cell lines, the inventors selected concentrations of 40 nmol/kg, 80 nmol/kg, and 160 nmol/kg. (Huynh A S, Chung W J, Cho H I, Moberg V E, Celis E, Morse D L, Vagner J. Novel Toll-like Receptor 2 Ligands for Targeted Pancreatic Cancer Imaging and Immunotherapy. J Med Chem. 2012; 55(22):9751-62) Fluorescence imaging was performed using the IVIS200 imaging system at various time points following intravenous administration of Dmt-Tic-IR800. For the bilateral flank subcutaneous xenograft model using endogenously expressing cells the optimal dose was 40 nmol/kg.
# Fluorescence imaging of mice bearing H1299 (δOR−) cells in the left flank and DMS-53 (δOR+) cells in the right flank was performed using the Optix MX3 imaging system and a 40 nmol/kg dose of Dmt-Tic-IR800. […] FIG. 28 is a series of in vivo fluorescence images taken at different time points of mice bearing the xenograft tumors of lung cancer cell lines with positive endogenous expression (DMS-53) and non-expression (H1299). […] FIG. 30 is a series of graphs depicting the quantified values from in vivo imaging of the lung cancer xenograft tumors using the Optix MX-3 imaging instrument by ART. FIG. 31 is a series of representative images depicting the ex vivo fluorescence imaging of excised positive tumor, negative tumor, liver, lungs, kidneys and GI tract following intravenous administration of the Dmt-Tic-IR800 agent. […]
# For dose determination assays on the Xenogen IVIS-200, images were analyzed using Living Image Software (v3.2). […]
# [7] = test system: DMS-53 luc+ (DOR+) orthotopic lung tumor; experiment: Orthotopic model of lung cancer, fluorescence molecular tomography; format: in vivo, mice; details: 40 nmol/kg i.v.; 0 to 48 hours
# Experimental: In the orthotopic model of lung cancer, the mice undergo a minor surgical procedure during which DMS-53 luc+ (DOR+) cells are injected directly in the left lung. The growth of the tumors is monitored using bioluminescence imaging (FIG. 33A). The PK of DORL-800 was studied in this model by injecting mice intravenously with DORL-800 (40 nmol/kg) and acquiring images at various time points from 0 to 48 hours using fluorescence molecular tomography (FIG. 33B). […] FIG. 34A depicts the structure of DORL-800. FIGS. 34B and C depict in vivo fluorescence imaging of endogenously expressing subcutaneous lung cancer xenograft tumors following administration of DORL-800. The presence of tumor was confirmed by computed tomography (CT) and histology. DORL-800 was studied for use in intraoperative guidance. FIG. 35 is an image of a SCID Hairless Outbred mouse (SHO) four weeks after DMS-53 luc+ (DOR+) cells were injected directly into the lung.
# [8] = target: δ-opioid receptor; details: literature value; cited from earlier work
# [9] = literature statement; cited from earlier work
# T1 sequence (P41143 1-357 limits assumed): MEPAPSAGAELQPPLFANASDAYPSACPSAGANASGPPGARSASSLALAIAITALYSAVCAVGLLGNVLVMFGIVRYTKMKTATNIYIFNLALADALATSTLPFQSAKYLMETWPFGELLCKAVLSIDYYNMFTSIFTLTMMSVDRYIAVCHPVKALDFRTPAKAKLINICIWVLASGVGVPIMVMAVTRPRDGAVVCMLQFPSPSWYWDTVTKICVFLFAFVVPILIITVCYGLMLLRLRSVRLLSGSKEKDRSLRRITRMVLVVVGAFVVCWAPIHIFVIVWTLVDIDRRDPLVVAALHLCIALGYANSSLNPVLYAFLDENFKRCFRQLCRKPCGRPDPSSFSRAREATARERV
# T2 sequence (P32300 whole entry): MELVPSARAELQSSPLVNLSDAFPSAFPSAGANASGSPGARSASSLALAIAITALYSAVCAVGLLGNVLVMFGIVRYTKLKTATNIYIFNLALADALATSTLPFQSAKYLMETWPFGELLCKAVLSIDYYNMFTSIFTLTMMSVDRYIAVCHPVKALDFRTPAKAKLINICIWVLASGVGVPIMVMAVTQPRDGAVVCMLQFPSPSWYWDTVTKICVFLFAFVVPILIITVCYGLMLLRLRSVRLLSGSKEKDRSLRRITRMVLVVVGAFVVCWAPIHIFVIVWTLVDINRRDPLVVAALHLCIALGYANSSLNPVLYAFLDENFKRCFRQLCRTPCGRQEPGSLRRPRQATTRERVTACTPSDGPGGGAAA
molecule,measurement,setting,value
"CC[N+]1=C(C=CC=CC=C2N(CCCCCC(=O)NCCN3C(=O)CC(SCCC(=O)NCCCC[C@H](NC(=O)[C@@H]4Cc5ccccc5CN4C(=O)[C@@H](N)Cc4c(C)cc(O)cc4C)C(=O)O)C3=O)c3ccc(S(=O)(=O)O)cc3C2(C)C)C(C)(C)c2cc(S(=O)(=O)[O-])ccc21 (stereo partly drawn) [ligand 1, Dmt-Tic-Lys(Cy5)-OH]",Ki,[1],3 nM
same,Kb,[2],0.037 nM
same,time of maximum probe uptake in the δOR+ tumor,"[3]; 4.5 nmol/kg i.v., time course 0-168 h",3 h
same,time by which probe is cleared from δOR negative tumor,[4],≤ 33 min
same,blood-brain barrier passage,[5],does not cross the blood-brain barrier
Cc1cc(O)cc(C)c1C[C@H](N)C(=O)N1Cc2ccccc2C[C@H]1C(=O)N[C@@H](CCCCNC(=O)CCSC1CC(=O)N(CCNC(=O)CCCCC[N+]2=C(/C=C/C3=C(Oc4ccc(S(=O)(=O)O)cc4)C(=C/C=C4/N(CCCCS(=O)(=O)O)c5ccc(S(=O)(=O)O)cc5C4(C)C)/CCC3)C(C)(C)c3cc(S(=O)(=O)[O-])ccc32)C1=O)C(=O)O (stereo partly drawn) [Dmt-Tic-IR800],Ki,[1],1.43 ± 0.24 nM
same,fold enhancement of the positive tumor (HCT-116/δOR) relative to the negative tumor (HCT-116),"[3]; 10 nmol/kg i.v., 24 hours post-injection, Optix MX3, n=4",~7 fold
same,tumor selectivity in fluorescence image,"[3]; 10 nmol/kg, 24 h post-administration",selective for the δOR+ tumor
same,fold enhancement of the positive tumor (DMS-53) relative to the negative tumor (H1299),"[6]; 40 nmol/kg i.v., 24 hours post-injection, Optix MX3, n=4",~4 fold
same,tumor selectivity in fluorescence image,[6],selective for the δOR+ tumor
same,tumor selectivity in fluorescence image,[6]; listed as DORL-800,selective for the DOR+ tumor
same,accumulation in orthotopic tumor,[7],accumulated specifically in the tumor
same,blood-brain barrier passage,[5],does not cross the blood-brain barrier
Dmt-Tic-Lys(Ac)-OH,Ki,[8],0.047 nM
CC1(C)C(/C=C/C2=C(Oc3ccc(S(=O)(=O)O)cc3)C(=C/C=C3/N(CCCCS(=O)(=O)O)c4ccc(S(=O)(=O)[O-])cc4C3(C)C)/CCC2)=[N+](CCCCCC(=O)O)c2ccc(S(=O)(=O)O)cc21 [Licor IR800CW],toxicity,[9],non-toxic
